The nature of data set [1]: Oral bioavailability in mouse at 1 mg/ml. In kind it is ADME, organism-based. Conditions: in vivo.
Data set [2] is described as follows: Cmax in mouse at 1 mg/ml, po. In kind it is ADME. Set-up: dose 1 mg/ml, route po. Conditions: in vivo.
The nature of data set [3]: MRT in rat at 1 mg/ml, po or iv. It is filed as ADME, organism-based. Conditions: in vivo.
Data set [4] can be described thus: Cmax in rat at 1 mg/ml, po. It is filed as ADME. Further details: dose 1 mg/ml, route po. Particulars: in vivo.
Data set [5] in a line: Volume of distribution at steady state in rat at 1 mg/ml, po or iv. It is filed as ADME, organism-based. Particulars: in vivo.
Data set [6] is described as follows: Oral bioavailability in rat at 1 mg/ml. It is filed as ADME, organism-based. Conditions: in vivo.
Data set [7] deals with T1, Toll-like receptor 7 (Homo sapiens, UniProt Q9NYK1).
T1 sequence (Q9NYK1 whole entry): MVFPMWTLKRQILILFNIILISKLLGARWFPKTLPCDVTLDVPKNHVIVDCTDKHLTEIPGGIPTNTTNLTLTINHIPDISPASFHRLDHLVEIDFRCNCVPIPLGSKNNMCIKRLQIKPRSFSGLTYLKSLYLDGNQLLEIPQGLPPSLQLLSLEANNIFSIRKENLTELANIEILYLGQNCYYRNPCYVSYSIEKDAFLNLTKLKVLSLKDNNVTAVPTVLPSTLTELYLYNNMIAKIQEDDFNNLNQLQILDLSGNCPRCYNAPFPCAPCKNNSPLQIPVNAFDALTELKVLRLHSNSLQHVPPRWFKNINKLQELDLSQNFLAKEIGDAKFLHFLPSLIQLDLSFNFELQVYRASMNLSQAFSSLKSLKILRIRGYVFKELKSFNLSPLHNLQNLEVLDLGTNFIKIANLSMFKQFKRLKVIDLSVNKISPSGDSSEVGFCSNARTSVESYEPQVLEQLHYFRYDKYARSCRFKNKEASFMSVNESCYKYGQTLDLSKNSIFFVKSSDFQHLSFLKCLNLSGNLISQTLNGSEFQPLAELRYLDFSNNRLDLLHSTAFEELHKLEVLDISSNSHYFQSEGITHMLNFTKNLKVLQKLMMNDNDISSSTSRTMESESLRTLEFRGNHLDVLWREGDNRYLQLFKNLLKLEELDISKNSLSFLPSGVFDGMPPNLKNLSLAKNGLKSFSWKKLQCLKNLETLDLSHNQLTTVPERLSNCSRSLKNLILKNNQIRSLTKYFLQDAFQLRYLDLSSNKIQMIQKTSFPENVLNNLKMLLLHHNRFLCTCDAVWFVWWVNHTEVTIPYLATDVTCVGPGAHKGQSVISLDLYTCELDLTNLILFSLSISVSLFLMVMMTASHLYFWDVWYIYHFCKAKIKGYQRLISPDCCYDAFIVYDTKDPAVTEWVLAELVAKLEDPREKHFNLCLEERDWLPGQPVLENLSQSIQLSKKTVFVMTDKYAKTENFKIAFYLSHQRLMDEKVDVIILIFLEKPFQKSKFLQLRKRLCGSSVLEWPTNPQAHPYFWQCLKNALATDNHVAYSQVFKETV
Put plainly: Antagonist activity at TLR7 in human PBMC cells assessed as reduction in IFN alpha measured after 20 hrs by AlphaLISA assay. In kind it is cell-based.

Data set [8] is described as follows: AUC in rat at 1 mg/ml, iv. In kind it is ADME. Conditions: in vivo. Further details: dose 1 mg/ml, route iv.
Data set [9] in a line: AUC in mouse at 1 mg/ml, po. In kind it is ADME. Set-up: dose 1 mg/ml, route po. Particulars: in vivo.
Data set [10] in a line: AUC in rat at 1 mg/ml, po. In kind it is ADME. Set-up: dose 1 mg/ml, route po. Particulars: in vivo.
A short description of data set [11]: Volume of distribution at steady state in mouse at 1 mg/ml, po or iv. Conditions: in vivo. In kind it is ADME, organism-based.
The target of data set [12] is T2, Toll-like receptor 7 (Mus musculus, UniProt P58681).
T2 sequence (P58681 whole entry): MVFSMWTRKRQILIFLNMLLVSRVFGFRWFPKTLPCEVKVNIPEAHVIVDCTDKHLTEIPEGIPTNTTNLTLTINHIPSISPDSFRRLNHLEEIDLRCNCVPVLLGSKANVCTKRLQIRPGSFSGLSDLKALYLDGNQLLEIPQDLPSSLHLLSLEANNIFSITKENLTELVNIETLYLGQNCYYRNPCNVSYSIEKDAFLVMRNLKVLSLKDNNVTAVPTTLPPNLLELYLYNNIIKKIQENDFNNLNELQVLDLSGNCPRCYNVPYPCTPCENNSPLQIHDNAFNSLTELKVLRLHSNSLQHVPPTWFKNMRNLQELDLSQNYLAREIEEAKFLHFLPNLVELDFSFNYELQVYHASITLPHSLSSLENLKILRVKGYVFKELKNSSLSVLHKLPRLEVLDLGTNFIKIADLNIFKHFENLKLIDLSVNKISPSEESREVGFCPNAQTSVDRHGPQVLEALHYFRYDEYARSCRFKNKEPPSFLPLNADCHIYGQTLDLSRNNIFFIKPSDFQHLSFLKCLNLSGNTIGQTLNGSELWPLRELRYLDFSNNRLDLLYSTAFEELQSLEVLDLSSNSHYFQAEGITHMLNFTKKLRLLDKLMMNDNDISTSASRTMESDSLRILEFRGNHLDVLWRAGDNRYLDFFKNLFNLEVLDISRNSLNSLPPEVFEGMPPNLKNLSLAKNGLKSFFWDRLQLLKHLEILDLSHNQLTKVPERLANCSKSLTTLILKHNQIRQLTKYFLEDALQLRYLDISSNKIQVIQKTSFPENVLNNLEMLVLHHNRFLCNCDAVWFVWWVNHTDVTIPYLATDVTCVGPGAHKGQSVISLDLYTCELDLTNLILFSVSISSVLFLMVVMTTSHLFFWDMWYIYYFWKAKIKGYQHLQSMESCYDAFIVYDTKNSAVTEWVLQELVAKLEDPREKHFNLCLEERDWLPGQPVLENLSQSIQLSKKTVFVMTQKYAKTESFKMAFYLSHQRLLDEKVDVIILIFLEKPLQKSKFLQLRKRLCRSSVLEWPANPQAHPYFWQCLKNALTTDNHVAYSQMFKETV
Put plainly: Antagonist activity at TLR7 in mouse Splenocyte assessed as reduction in IFN-alpha level measured after 20 hrs by Spectramax M5 method. It is filed as cell-based.

Data set [13] has as its target T2, Toll-like receptor 7. Put plainly: Antagonist activity at TLR7 in mouse Whole blood cell assessed as reduction in IFN-alpha level measured after 20 hrs by AlphaLISA method. In kind it is tissue-based. In general terms: Alpha assays give light when donor and acceptor beads are brought close together.
Data set [14] concerns the target Toll-like receptor 7 (Mus musculus) (UniProt P58681). Put plainly: In vivo antagonist activity against TLR7 in po dosed mouse assessed as suppression of IL-6 level measured at 3 hrs by LC-MS/MS analysis. Particulars: dose 1-30 mg/kg.

As usually defined, the bioavailability is dose-corrected exposure relative to a reference, in per cent. A lower bioavailability goes with poor availability. A word on the Cmax: it is the highest concentration seen after dosing. For orientation: MRT means a mean duration of stay, worked out from the concentration-time curve. Broadly, the IC50 is the midpoint of a concentration-inhibition curve. A word on the AUC: it is the area under the concentration-time curve, a measure of exposure. Read a low AUC as low exposure.

The structures appear in SMILES notation.

Take `CCNCC(=O)NC12CCC(Cn3nc(C)c4c3CCN(c3cc(C)nc5c3cnn5C)C4)(CC1)CC2`: the bioavailability worked out at 10% in [1] and 12% in data set [6]. In addition, the Cmax was 515 nM in data set [2] and 48 nM in data set [4]. The compound also had an MRT in data set [3] of 2.8 h. Also, the Vdss was determined as 3 L/kg in data set [5] and 1 L/kg in data set [11]. Besides, the IC50 on Toll-like receptor 7 [7] came out at 17 nM. For the same compound, the exposure (AUC) in [8] was found to be 1.78 µM·h; in data set [9] it was 4.63 µM·h; in data set [10], 0.618 µM·h.
For the compound `Cc1cc(N2CCc3c(c(C)nn3CC34CCC(N)(CC3)CC4)C2)c2cnn(C)c2n1`, the IC50 on Toll-like receptor 7 [12] is 74 nM; on Toll-like receptor 7 [7], 20 nM.
For `Cc1cc(N2CCc3c(c(C)nn3CC34CCC(NC(=O)[C@@H]5COCCN5)(CC3)CC4)C2)c2cnn(C)c2n1` [MHV-370], the 50% inhibitory concentration (IC50) at Toll-like receptor 7 [12] amounted to 9 nM; at Toll-like receptor 7 [13], 51 nM. Besides, the bioavailability came to 32% in data set [1] and 52% in data set [6]. In addition, the Cmax came to 1860 nM in data set [2] and 282 nM in data set [4]. This compound also had an MRT in data set [3] of 1.2 h. Also, the Vdss is 1.3 L/kg in data set [5] and 0.7 L/kg in data set [11]. Moreover, the values for the AUC in [8], in [9] and in data set [10] were 1.78 µM·h, 9.16 µM·h and 2.82 µM·h, respectively. Besides, the Activity result in data set [14] is “Dose-Dependent Effect”.
